Laboratory results published in US6066642A, “Dihydropyridine-, pyridine-, benzopyran-4-one- and triazoloquinazoline derivative, their preparation and their use as adenosine receptor antagonists” (priority 1998, dated 2000).
Like-named read-outs stand apart in the source and are kept apart here. One block for each compound: values may come before it.

Legend:
A3 specific binding = A3 specific binding after blocking A1 and A2 specific binding sites with a xanthine amino congener; settings: A1 and A2 sites blocked with xanthine amino congener
Text: Adenosine receptors have been implicated in the bronchoconstriction (BC) in allergic asthma.

A2a receptors = target: T1, A2a receptors (Rattus norvegicus, UniProt P30543); experiment: radioligand binding, displacement of specific [3H]CGS 21680 binding in rat striatal membranes
T1 construct: Displacement of specific [^3 H]; from tissue; host or cells: rat striatal membranes
Procedure: ^b Displacement of specific [^3 H]
or as a percentage of specific binding displaced at 100 μM.

A1 receptors = target: T2, A1 receptors (Rattus norvegicus, UniProt P25099); experiment: biochemical; assay type: binding
T2 sequence (P25099 1-326): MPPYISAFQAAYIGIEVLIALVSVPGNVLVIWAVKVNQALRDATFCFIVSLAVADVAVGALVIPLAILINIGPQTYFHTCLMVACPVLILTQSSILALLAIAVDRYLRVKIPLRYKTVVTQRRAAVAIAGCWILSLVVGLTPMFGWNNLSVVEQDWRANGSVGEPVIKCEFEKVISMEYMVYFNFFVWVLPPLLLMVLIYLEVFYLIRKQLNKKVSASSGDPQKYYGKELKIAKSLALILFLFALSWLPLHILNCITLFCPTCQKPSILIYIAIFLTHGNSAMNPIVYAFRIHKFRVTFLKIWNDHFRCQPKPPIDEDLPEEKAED
Procedure: ^a Displacement of specific [^3 H] PIA binding in rat brain
percentage of specific binding displaced at 100 μM.

human A3 receptors = target: T3, human A3 receptors (Homo sapiens, UniProt P0DMS8); experiment: radioligand binding, displacement of specific [125I]AB-MECA binding at human A3 receptors expressed in HEK-293 cells
T3 construct: expressed in transfected cells; host or cells: HEK-293 cells (membranes)
T3 sequence (P0DMS8 1-318): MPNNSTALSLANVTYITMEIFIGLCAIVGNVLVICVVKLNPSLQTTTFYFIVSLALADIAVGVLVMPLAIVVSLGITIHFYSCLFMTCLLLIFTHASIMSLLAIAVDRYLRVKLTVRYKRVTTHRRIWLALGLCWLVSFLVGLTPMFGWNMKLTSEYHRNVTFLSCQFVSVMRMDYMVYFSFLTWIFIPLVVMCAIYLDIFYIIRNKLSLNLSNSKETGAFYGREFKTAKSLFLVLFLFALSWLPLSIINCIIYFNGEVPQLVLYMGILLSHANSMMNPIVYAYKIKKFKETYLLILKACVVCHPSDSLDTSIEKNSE
Procedure: A3 receptors expressed in HEK293 cells, in membranes, expressed as
binding displaced at 100 μM.

rat A3 receptor = target: T4, rat A3 receptor (Rattus norvegicus, UniProt P28647); experiment: A3-agonist-elicited inhibition of adenylyl cyclase in membranes from CHO cells stably expressing the rat A3 receptor; assay type: biochemical; settings: compound 50 μM, 1 μM forskolin
T4 construct: expressed in transfected cells; host or cells: CHO cells (membranes)
T4 sequence (P28647 1-320): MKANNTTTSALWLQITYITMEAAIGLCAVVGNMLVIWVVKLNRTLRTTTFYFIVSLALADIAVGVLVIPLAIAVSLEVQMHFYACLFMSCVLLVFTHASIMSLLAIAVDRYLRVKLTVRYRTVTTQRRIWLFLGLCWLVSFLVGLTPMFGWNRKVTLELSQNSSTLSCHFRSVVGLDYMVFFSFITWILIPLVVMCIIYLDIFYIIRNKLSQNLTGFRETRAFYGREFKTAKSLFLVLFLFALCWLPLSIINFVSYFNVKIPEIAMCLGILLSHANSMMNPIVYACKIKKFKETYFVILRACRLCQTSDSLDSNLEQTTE
Procedure: ^a Assayed in membranes from CHO cells stably expressing the rat
A3 receptor in the presence of 1 μM forskolin.

adenosine receptor = settings: [3H]cyclohexyladenosine and [3H]1,3-diethyl-8-phenylxanthine; cited from earlier work
[1] = system: bak protein in U-937 cells; experiment: expression of apoptosis-inducing protein bak by immunofluorescence, U-937 cells; assay type: cell-based; settings: 10 nM
Procedure: (§1) Cells were fixed as following steps: 10 min with 1% formalin in PBS, 5 min with […] methanol and 2 min with ice cold acetone, then permebilized with 0.1% Nonidet P-40 for 20 min. After the preparation, the specimens were incubated step by step: 10% goat serum in PBS for 20 min, mouse monoclonal anti-bak antibody (5 μg/ml PBS-BSA) for 60 min, Rhodamine (TRITC)-conjugated AffiniPure Goat Anti-mouse IgG (H+L) in PBS-BSA for 60 min. The specimens were washed 3-5 times with PBS after every step. The glass slides were stored at 4° C. in the dark.
(§2) The mechanism of the apoptosis observed in response to either A3 agonists was investigated.

[2] = system: bak protein in HL-60 cells; experiment: expression of apoptosis-inducing protein bak by immunofluorescence, HL-60 cells; assay type: cell-based; settings: 10 nM
Procedure: as §1, §2

T1 sequence (P30543 whole entry): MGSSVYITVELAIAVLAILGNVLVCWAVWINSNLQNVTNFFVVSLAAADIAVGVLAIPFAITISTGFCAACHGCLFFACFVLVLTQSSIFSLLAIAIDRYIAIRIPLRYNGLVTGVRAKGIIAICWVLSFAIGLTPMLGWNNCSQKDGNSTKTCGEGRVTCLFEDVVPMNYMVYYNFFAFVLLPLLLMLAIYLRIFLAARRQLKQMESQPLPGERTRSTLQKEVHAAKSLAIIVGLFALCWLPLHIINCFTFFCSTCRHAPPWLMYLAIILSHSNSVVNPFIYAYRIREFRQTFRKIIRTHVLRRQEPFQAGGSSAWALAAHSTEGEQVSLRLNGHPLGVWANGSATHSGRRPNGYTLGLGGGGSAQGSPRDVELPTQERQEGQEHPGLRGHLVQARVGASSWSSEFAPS

- displacement of A3 specific binding (A3 specific binding): A3 specific binding was displaced
SMILES: Nc1ccc(CCNc2ncnc3c2ncn3[C@@H]2O[C@H](CO)[C@@H](O)[C@H]2O)cc1 [APNEA]

SMILES: COc1ccc2c(c1)C(=O)[C@H](O)[C@@H](/C=C/c1ccccc1)O2 (relative stereo) [Compound 15]
- inhibition at 100 µM (A2a receptors; Table 4, 10^-4 M, read-out: displacement of specific binding rA2a): < 10%
- inhibition at 100 µM (A1 receptors; Table 4, 10^-4 M, read-out: displacement of specific binding rA1): < 10%
- rA1/hA3 (human A3 receptors): > 8
- Ki (human A3 receptors; Table 4, [125I]AB-MECA, HEK-293 membranes, read-out: Ki hA3): 21100 nM
- inhibition at 50 µM (rat A3 receptor; IB-MECA 10^-6 M, read-out: % Inhibition of adenylyl cyclase, IB-MECA (10^-6 M)): 39.2 ± 3%
- inhibition at 50 µM (rat A3 receptor; IB-MECA 10^-7 M, read-out: % Inhibition of adenylyl cyclase, IB-MECA (10^-7 M)): 25.9 ± 2.4%

SMILES: COc1ccc([C@@H]2Sc3ccccc3N(CCN(C)C)C(=O)[C@@H]2OC(C)=O)cc1 [diltiazem]
- effect on adenosine receptor binding (adenosine receptor): negligible effects on adenosine receptor binding

- Ki (A2a receptors; Table 15, [3H]CGS 21680, rat striatal membranes, read-out: Ki rA2A): 52 ± 8.8 nM
- Ki (A1 receptors; Table 15, [3H]PIA, rat brain membranes, read-out: Ki rA1): 305 ± 51 nM
SMILES: O=C(Cc1ccccc1)Nc1nc2ccc(Cl)cc2c2nc(-c3ccco3)nn12 [Compound 153, 9-Chloro-2-(2-furyl)-5-phenylacetylamino[1,2,4]triazolo [1,5-c]quinazoline]
- expression of bak protein, U-937 [1]: induced
- expression of bak protein, HL-60 [2]: induced
